Laboratory results as given in patent US9273014B2, “Bis(fluoroalkyl)-1,4-benzodiazepinone compounds and prodrugs thereof” (Bristol-Myers Squibb Company, priority 2012, dated 2016).

Key:
human Notch 3 = human Notch 3 (Homo sapiens, UniProt Q9UM47); test: Notch-CBF1 Transactivation Assay (Notch 3); assay type: cell-based; conditions: HeLa cells co-transfected with truncated Notch 3 and CBF1 luciferase reporter; 18 hours incubation
From the text: Notch-CBF1 Transactivation Assay
The Notch-CBF1 (C-promoter binding factor I) cell based transactivation assay is based on the ability of the released Notch intracellular domain fragments (NICDs) to function as transcription factors in conjunction with CBF1 and other nuclear factors. Luciferase assays were used to measure the antagonism of Notch-CBF1 transcriptional activity. HeLa cervical cancer cells are transiently co-transfected with pCDNA3.1/Hygro plasmids containing truncated Notch 1, Notch 2, Notch 3, or Notch 4 receptors and a PGL3 luciferase reporter vector containing 4 copies of CBF1 binding site. The cells were then tested for Notch-CBF1 activity in the absence or presence of test compounds. HeLa cells, maintained in DMEM (high glucose with HEPES), 1× glutamine/penicillin/streptomycin and 10% Fetal Bovine serum, were transiently transfected in a T175 Flask (4.5×10^6 cells/flask) using the Monster Transfection Kit (Minis #MIR2906) according to manufacturers specifications. Table 9 denotes respective DNA quantity for the transfections.
Assay media (5 μL) containing test compounds in final concentrations ranging from 5 μM to 8.4×10^−5 μM (3 fold serial dilutions) were added to the cells and the cell plates were then incubated for 18 hours at 37° C. and 5% CO2. Control wells contained DMSO vehicle (total counts) or 0.5 μM of an in-house small molecule inhibitor (background counts). Duplicates were used for each sample. Luciferase activity was measured after a 20-minute incubation with 50 μl STEADY-GLO® luciferase reagents according to manufacturer's specifications (Promega, Cat. #E2550) and analyzed by Envision plate reader (PerkinElmer, Boston, Mass.).
The antagonist effect of compounds was expressed as 100×[1−(average sample-average background)/(average total−average background)] where sample is the luciferase activity in the presence of test compound, background is equal to the luciferase activity in the presence of the small molecule inhibitor control and the total is signal induced in DMSO wells.

[1] = test system: TALL1 Human T-cell acute lymphoblastic leukemia; test: Human tumor xenograft model in mice, TALL1; assay type: in vivo; conditions: oral administration, 10 mg/kg, QDx10; LCK = Log Cell Kill
Experimental: Human Tumor Xenograft Models in Mice
Mice were fed food and water ad libitum.
Tumor growth inhibition is calculated as follows: […]
When death occurred, the day of death was recorded.

human tumor xenografts = test: Human tumor xenograft models in mice (general statement); assay type: in vivo; conditions: orally administered (PO)
Experimental: Mice were fed food and water ad libitum. […] [table] […] When death occurred, the day of death was recorded.

in vitro = conditions: human, microsomes, pH 7.4
[2] = Prodrug evaluation: single-dose pharmacokinetics in rats; conditions: rat, oral gavage, dose 3.00 mg/kg
Experimental: Male SPRAGUE DAWLEY® rats (250-300 g) were used for the pharmacokinetic studies. Rats were fasted overnight prior to dosing and fed 4 hrs post dose. In each study, groups of animals (N=2-3) received the test compound by oral gavage. Blood samples (˜0.3 mL) were collected from the jugular vein into K2EDTA-containing tubes at 0.5, 1, 3, 5, 7, and 24 h post dose. Plasma samples, obtained by centrifugation at 4° C. (1500-2000× g), were stored at −20° C. until analysis by LC/MS/MS.
The pharmacokinetic parameters were obtained by non-compartmental analysis of plasma concentration (determined by LC/MS/MS) vs. time data (ThermoKinetica Software version 5.0). The peak concentration (Cmax) and time for Cmax, Tmax, were recorded directly from experimental observations. The area under the curve from time zero to the last sampling time (AUC0-t) was calculated using a combination of linear and log trapezoidal summations. The total plasma clearance (CLTp), steady-state volume of distribution (Vss), apparent elimination half-life (t1/2) and mean residence time (MRT) were estimated after IV administration. […] The absolute oral bioavailability F was estimated as the ratio of dose-normalized AUC values following oral and IV doses.

Chain of human Notch 3 (Q9UM47 40-2321 limits assumed): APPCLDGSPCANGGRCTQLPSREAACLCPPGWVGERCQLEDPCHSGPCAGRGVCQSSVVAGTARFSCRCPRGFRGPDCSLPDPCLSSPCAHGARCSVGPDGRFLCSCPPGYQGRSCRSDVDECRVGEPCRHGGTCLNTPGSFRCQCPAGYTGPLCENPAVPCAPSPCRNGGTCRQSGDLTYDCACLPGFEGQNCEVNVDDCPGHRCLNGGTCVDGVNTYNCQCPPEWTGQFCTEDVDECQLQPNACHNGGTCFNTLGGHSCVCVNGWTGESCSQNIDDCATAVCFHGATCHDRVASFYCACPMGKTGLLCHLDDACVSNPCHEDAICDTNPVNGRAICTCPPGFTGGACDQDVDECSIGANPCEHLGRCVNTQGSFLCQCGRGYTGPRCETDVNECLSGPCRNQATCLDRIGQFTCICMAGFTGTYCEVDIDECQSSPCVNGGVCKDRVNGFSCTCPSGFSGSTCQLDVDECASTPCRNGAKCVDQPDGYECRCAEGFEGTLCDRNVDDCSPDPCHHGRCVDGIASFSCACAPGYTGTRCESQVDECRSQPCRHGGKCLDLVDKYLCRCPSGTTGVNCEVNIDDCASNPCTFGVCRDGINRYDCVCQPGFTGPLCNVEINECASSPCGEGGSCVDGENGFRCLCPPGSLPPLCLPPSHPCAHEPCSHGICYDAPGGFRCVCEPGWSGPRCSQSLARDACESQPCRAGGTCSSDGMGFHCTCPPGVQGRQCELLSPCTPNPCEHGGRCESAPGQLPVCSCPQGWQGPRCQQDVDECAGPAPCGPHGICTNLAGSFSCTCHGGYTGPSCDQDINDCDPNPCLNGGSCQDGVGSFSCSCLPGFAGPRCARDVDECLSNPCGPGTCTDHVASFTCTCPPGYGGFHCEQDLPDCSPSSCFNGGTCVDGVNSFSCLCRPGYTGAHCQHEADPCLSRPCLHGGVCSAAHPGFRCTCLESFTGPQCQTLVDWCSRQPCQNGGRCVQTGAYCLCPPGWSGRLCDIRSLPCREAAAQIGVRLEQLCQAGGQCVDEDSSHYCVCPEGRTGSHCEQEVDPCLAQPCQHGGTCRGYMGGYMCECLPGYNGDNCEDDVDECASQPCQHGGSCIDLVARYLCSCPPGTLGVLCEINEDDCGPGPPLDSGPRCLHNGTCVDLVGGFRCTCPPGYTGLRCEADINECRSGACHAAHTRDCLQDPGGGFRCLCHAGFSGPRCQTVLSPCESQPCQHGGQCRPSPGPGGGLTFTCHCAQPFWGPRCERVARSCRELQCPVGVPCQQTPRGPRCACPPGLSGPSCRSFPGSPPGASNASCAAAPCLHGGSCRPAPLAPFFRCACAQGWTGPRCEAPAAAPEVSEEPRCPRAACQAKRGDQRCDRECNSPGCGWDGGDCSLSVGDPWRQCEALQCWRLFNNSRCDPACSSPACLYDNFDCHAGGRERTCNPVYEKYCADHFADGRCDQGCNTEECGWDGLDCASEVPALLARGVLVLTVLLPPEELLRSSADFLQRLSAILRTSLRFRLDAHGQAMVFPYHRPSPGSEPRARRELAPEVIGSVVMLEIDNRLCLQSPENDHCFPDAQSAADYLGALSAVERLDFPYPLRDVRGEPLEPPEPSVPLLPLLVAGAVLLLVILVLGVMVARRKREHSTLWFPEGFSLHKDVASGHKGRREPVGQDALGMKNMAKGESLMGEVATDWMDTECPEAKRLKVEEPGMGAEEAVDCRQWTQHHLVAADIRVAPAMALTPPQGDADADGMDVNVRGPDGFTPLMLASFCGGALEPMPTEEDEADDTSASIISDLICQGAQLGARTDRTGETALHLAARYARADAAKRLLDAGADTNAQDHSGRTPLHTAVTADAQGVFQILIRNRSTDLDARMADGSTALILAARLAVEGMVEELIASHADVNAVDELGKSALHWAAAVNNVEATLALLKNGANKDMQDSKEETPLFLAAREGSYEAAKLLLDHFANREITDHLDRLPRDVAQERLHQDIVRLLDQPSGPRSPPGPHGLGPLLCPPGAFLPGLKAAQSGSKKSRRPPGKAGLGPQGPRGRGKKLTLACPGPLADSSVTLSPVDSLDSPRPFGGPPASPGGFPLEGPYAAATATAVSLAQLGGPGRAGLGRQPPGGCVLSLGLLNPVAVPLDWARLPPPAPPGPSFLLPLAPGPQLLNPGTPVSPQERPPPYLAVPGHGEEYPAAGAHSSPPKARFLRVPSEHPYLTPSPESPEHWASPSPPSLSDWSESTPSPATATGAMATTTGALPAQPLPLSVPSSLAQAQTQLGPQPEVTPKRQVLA

SMILES	IC50 (human Notch 3)	Antitumor Activity TALL1 (LCK) [1]	antitumor activity in human tumor xenografts implanted in mice (human tumor xenografts)	half-life (in vitro)	% Relative Bioavailability to Example 1 [2]	AUC0-24 h of Example 1 after Administration of Prodrug [2]
CC(C)c1cccc2c1NC(=O)[C@@H](NC(=O)[C@H](CCC(F)(F)F)[C@H](CCC(F)(F)F)C(N)=O)N=C2c1cccc(Cl)c1 [Example 3, (2R,3S)—N-((3S)-5-(3-Chlorophenyl)-9-isopropyl-2-oxo-2,3-dihydro-1H-1,4-benzodiazepin-3-yl)-2,3-bis(3,3,3-trifluoropropyl)succinamide]	1.9 nM	4.0	showed antitumor activity	1.22 h	–	–
Cc1cc(C)cc(C2=N[C@H](NC(=O)[C@H](CCC(F)(F)F)[C@H](CCC(F)(F)F)C(N)=O)C(=O)Nc3c(Cl)cccc32)c1 [Example 10, (2R,3S)—N-((3S)-9-Chloro-5-(3,5-dimethylphenyl)-2-oxo-2,3-dihydro-1H-1,4-benzodiazepin-3-yl)-2,3-bis(3,3,3-trifluoropropyl)succinamide]	5.4 nM	–	–	0.9 h	–	–
Cc1cccc(C2=N[C@H](NC(=O)[C@H](CCC(F)(F)F)[C@H](CCC(F)(F)F)C(N)=O)C(=O)Nc3c2cccc3C(C)C)c1 [Example 12, (2R,3S)—N-((3S)-9-Isopropyl-5-(3-methylphenyl)-2-oxo-2,3-dihydro-1H-1,4-benzodiazepin-3-yl)-2,3-bis(3,3,3-trifluoropropyl)succinamide]	3.2 nM	–	–	0.883 h	–	–
NC(=O)[C@@H](CCCC(F)(F)F)[C@@H](CCC(F)(F)F)C(=O)N[C@H]1N=C(c2ccccc2)c2cccc(OC3CC3)c2NC1=O [Example 16, (2R,3S)—N-((3S)-9-(Cyclopropyloxy)-2-oxo-5-phenyl-2,3-dihydro-1H-1,4-benzodiazepin-3-yl)-3-(4,4,4-trifluorobutyl)-2-(3,3,3-trifluoropropyl)succinamide]	3.7 nM	–	–	1.8 h	–	–
Cc1cccc(C2=N[C@H](NC(=O)[C@H](CCC(F)(F)F)[C@H](CCCC(F)(F)F)C(N)=O)C(=O)Nc3c(Cl)cccc32)c1 [Example 17, (2R,3S)—N-((3S)-9-Chloro-5-(3-methylphenyl)-2-oxo-2,3-dihydro-1H-1,4-benzodiazepin-3-yl)-3-(4,4,4-trifluorobutyl)-2-(3,3,3-trifluoropropyl)succinamide]	2.4 nM	–	–	0.933 h	–	–
Cc1cccc2c1NC(=O)[C@@H](NC(=O)[C@H](CCC(F)(F)F)[C@H](CCCC(F)(F)F)C(N)=O)N=C2c1cccc(C(F)(F)F)c1 [Example 18, (2R,3S)—N-((3S)-9-Methyl-2-oxo-5-(3-(trifluoromethyl)phenyl)-2,3-dihydro-1H-1,4-benzodiazepin-3-yl)-3-(4,4,4-trifluorobutyl)-2-(3,3,3-trifluoropropyl)succinamide]	7.7 nM	–	–	> 2 h	–	–
NC(=O)[C@@H](CCC(F)(F)F)[C@@H](CCC(F)(F)F)C(=O)N[C@H]1N=C(c2ccccc2)c2cccc(OC3CC3)c2NC1=O [Example 19, (2R,3S)—N-((3S)-9-(Cyclopropyloxy)-2-oxo-5-phenyl-2,3-dihydro-1H-1,4-benzodiazepin-3-yl)-2,3-bis(3,3,3-trifluoropropyl)succinamide]	4 nM	–	–	1.8 h	–	–
Cc1cccc2c1NC(=O)[C@@H](NC(=O)[C@H](CCC(F)(F)F)[C@H](CCC(F)(F)F)C(N)=O)N=C2c1cccc(C(F)(F)F)c1 [Example 20, (2R,3S)—N-((3S)-9-Methyl-2-oxo-5-(3-(trifluoromethyl)phenyl)-2,3-dihydro-1H-1,4-benzodiazepin-3-yl)-2,3-bis(3,3,3-trifluoropropyl)succinamide]	1.4 nM	–	–	> 2 h	–	–
Cc1ccccc1C1=N[C@H](NC(=O)[C@H](CCC(F)(F)F)[C@H](CCC(F)(F)F)C(N)=O)C(=O)Nc2c(Cl)cccc21 [Example 21, (2R,3S)—N-((3S)-9-Chloro-5-(2-methylphenyl)-2-oxo-2,3-dihydro-1H-1,4-benzodiazepin-3-yl)-2,3-bis(3,3,3-trifluoropropyl)succinamide]	6.1 nM	–	–	1.78 h	–	–
Cc1cccc2c1NC(=O)[C@@H](NC(=O)[C@H](CCC(F)(F)F)[C@H](CCC(F)(F)F)C(N)=O)N=C2c1ccc(F)cc1 [Example 22, (2R,3S)—N-((3S)-5-(4-Fluorophenyl)-9-methyl-2-oxo-2,3-dihydro-1H-1,4-benzodiazepin-3-yl)-2,3-bis(3,3,3-trifluoropropyl)succinamide]	6.3 nM	–	–	> 2 h	–	–
Cc1cccc2c1NC(=O)[C@@H](NC(=O)[C@H](CCC(F)(F)F)[C@H](CCC(F)(F)F)C(N)=O)N=C2c1ccccc1 [Example 23, (2R,3S)—N-((3S)-9-Methyl-2-oxo-5-phenyl-2,3-dihydro-1H-1,4-benzodiazepin-3-yl)-2,3-bis(3,3,3-trifluoropropyl)succinamide]	8.3 nM	–	–	1.68 h	–	–
NC(=O)[C@@H](CCC(F)(F)F)[C@@H](CCC(F)(F)F)C(=O)N[C@H]1N=C(c2ccccc2)c2cccc(C3CC3)c2NC1=O [Example 24, (2R,3S)—N-((3S)-9-Cyclopropyl-2-oxo-5-phenyl-2,3-dihydro-1H-1,4-benzodiazepin-3-yl)-2,3-bis(3,3,3-trifluoropropyl)succinamide]	2.1 nM	–	–	1.03 h	–	–
NC(=O)[C@@H](CCC(F)(F)F)[C@@H](CCC(F)(F)F)C(=O)N[C@H]1N=C(c2cccc(C3CC3)c2)c2cccc(Cl)c2NC1=O [Example 25, (2R,3S)—N-((3S)-9-Chloro-5-(3-cyclopropylphenyl)-2-oxo-2,3-dihydro-1H-1,4-benzodiazepin-3-yl)-2,3-bis(3,3,3-trifluoropropyl)succinamide]	2.9 nM	–	–	> 2 h	–	–
COc1cccc2c1NC(=O)[C@@H](NC(=O)[C@H](CCC(F)(F)F)[C@H](CCC(F)(F)F)C(N)=O)N=C2c1cccc(Cl)c1 [Example 26, (2R,3S)—N-((3S)-5-(3-Chlorophenyl)-9-methoxy-2-oxo-2,3-dihydro-1H-1,4-benzodiazepin-3-yl)-2,3-bis(3,3,3-trifluoropropyl)succinamide]	3.4 nM	–	–	1.37 h	–	–
Cc1cccc(C2=N[C@H](NC(=O)[C@H](CCC(F)(F)F)[C@H](CCC(F)(F)F)C(N)=O)C(=O)Nc3c(Cl)cccc32)c1 [Example 28, (2R,3S)—N-((3S)-9-Chloro-5-(3-methylphenyl)-2-oxo-2,3-dihydro-1H-1,4-benzodiazepin-3-yl)-2,3-bis(3,3,3-trifluoropropyl)succinamide]	7.2 nM	–	–	1.63 h	–	–
Cc1ccccc1C1=N[C@H](NC(=O)[C@H](CCC(F)(F)F)[C@H](CCC(F)(F)F)C(N)=O)C(=O)Nc2ccccc21 [Example 31, (2R,3S)—N-((3S)-5-(2-Methylphenyl)-2-oxo-2,3-dihydro-1H-1,4-benzodiazepin-3-yl)-2,3-bis(3,3,3-trifluoropropyl)succinamide]	4.6 nM	–	–	1.67 h	–	–
COc1cccc2c1NC(=O)[C@@H](NC(=O)[C@H](CCC(F)(F)F)[C@H](CCC(F)(F)F)C(N)=O)N=C2c1ccc(C(F)(F)F)cn1 [Example 33, (2R,3S)—N-((3S)-9-Methoxy-2-oxo-5-(5-(trifluoromethyl)-2-pyridinyl)-2,3-dihydro-1H-1,4-benzodiazepin-3-yl)-2,3-bis(3,3,3-trifluoropropyl)succinamide]	7.4 nM	–	–	1.37 h	–	–
Cc1ccc(C2=N[C@H](NC(=O)[C@H](CCC(F)(F)F)[C@H](CCC(F)(F)F)C(N)=O)C(=O)Nc3ccccc32)cc1 [Example 36, (2R,3S)—N-((3S)-5-(4-Methylphenyl)-2-oxo-2,3-dihydro-1H-1,4-benzodiazepin-3-yl)-2,3-bis(3,3,3-trifluoropropyl)succinamide]	3 nM	–	–	> 2 h	–	–
NC(=O)[C@@H](CCC(F)(F)F)[C@@H](CCC(F)(F)F)C(=O)N[C@H]1N=C(c2cccc(F)c2)c2cccc(CO)c2NC1=O [Example 37, (2R,3S)—N-((3S)-5-(3-Fluorophenyl)-9-(hydroxymethyl)-2-oxo-2,3-dihydro-1H-1,4-benzodiazepin-3-yl)-2,3-bis(3,3,3-trifluoropropyl)succinamide]	9.3 nM	–	–	1.02 h	–	–
Cc1cccc2c1N(COC(=O)Cc1ccc(OP(=O)(O)O)cc1)C(=O)[C@@H](NC(=O)[C@H](CCC(F)(F)F)[C@H](CCC(F)(F)F)C(N)=O)N=C2c1cccc(F)c1 [Example 43, ((3S)-3-(((2R,3S)-3-Carbamoyl-6,6,6-trifluoro-2-(3,3,3-trifluoropropyl)hexanoyl)amino)-5-(3-fluorophenyl)-9-methyl-2-oxo-2,3-dihydro-1H-1,4-benzodiazepin-1-yl)methyl(4-(phosphonooxy)phenyl)acetate]	–	–	–	–	35%	0.193 µM·h
